assay: recombinant UMI read abundance after kanamycin selection (control-corrected) (log10(CPM+1)); higher = more efficient recombination; extreme values may be limits of the assay; sequences stand for … in AGTGCAGAGAAAATCGGCCAGTTTTCTCTGCCTGCAGTCCGCATGCCGTGGGACCCCTTGGGTTCTAACCTGTTGCCTAGATTTATGCAGCGGACTGCCTTTCTCCCAAAGTGATAAACCGG…AGGTTGGTTTCACT; site = the 11-nt donor
How it was run: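 Sequencing read counts were converted to CPM, averaged over two replicates and scaled by control-derived factors. Results are given as log10(CPM+1). The reads covered the donor–target junction of recombinant UMIs from a pooled Escherichia coli screen of donor and donor-binding-loop pairs for the IS621 bridge recombinase.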
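Note: IS621 bridge recombinase in Escherichia coli cells against a fixed T5 target plasmid.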

Sequence | recombinant UMI read abundance (log10)
CTAGTGTCATGGACCGGTTTTCCCGGTAATCCGTATTTGAC (site CTAGTCTCTGT) | 0
CTAGTGTCATGGACCGGTTTTCCCGGTAATCCGTATTTGAC (site CTAGTGTCTGT) | 0
CTAGTGTCATGGACCGGTTTTCCCGGTAATCCGTATTTGAC (site CTAGTTTCTGT) | 0
CTAGTTACATGGACCGGTTTTCCCGGTAATCCGTATTTGTC (site CTAGTTACTGA) | 2.57
CTATAAACATGGACCGGTTTTCCCGGTAATCCGTATTTGGA (site CTATAAACTTC) | 2.34
CTATATGCATGGACCGGTTTTCCCGGTAATCCGTATTTGTA (site CTATATGCTTA) | 2.55
CTATCATCATGGACCGGTTTTCCCGGTAATCCGTATTTGCG (site CGATCATCTAG) | 0
CTATCATCATGGACCGGTTTTCCCGGTAATCCGTATTTGCG (site CTATCATCTCG) | 1.87
CTATGATCATGGACCGGTTTTCCCGGTAATCCGTATTTGCG (site CTATGATCTCG) | 3.16
CTATTACCATGGACCGGTTTTCCCGGTAATCCGTATTTGAC (site CTAGTATCTGT) | 0
CTATTACCATGGACCGGTTTTCCCGGTAATCCGTATTTGAC (site CTATTACCTGT) | 0
CTATTCCCATGGACCGGTTTTCCCGGTAATCCGTATTTGTT (site CTATTCCCTAA) | 1.42
CTCAAGACATGGACCGGTTTTCCCGGTAATCCGTATTTGGG (site CTCAAGACTCC) | 0
CTCATATCATGGACCGGTTTTCCCGGTAATCCGTATTTGTC (site CACATATCTGA) | 0.65
CTCATATCATGGACCGGTTTTCCCGGTAATCCGTATTTGTC (site CCCATATCTGA) | 0.718
CTCATATCATGGACCGGTTTTCCCGGTAATCCGTATTTGTC (site CGCATATCTGA) | 0

Sequence | recombinant UMI read abundance (log10)
CTCATATCATGGACCGGTTTTCCCGGTAATCCGTATTTGTC (site CTCATATCTGA) | 1.5
CTCATCGCATGGACCGGTTTTCCCGGTAATCCGTATTTGCC (site CTCATCGCTGG) | 0.346
CTCCACACATGGACCGGTTTTCCCGGTAATCCGTATTTGGG (site CTCCACACTCC) | 0.0377
CTCCAGCCATGGACCGGTTTTCCCGGTAATCCGTATTTGAG (site CTCCAGCCTCT) | 0.0271
CTCCCCACATGGACCGGTTTTCCCGGTAATCCGTATTTGAG (site CTCCCAACTCT) | 0.00953
CTCCCCACATGGACCGGTTTTCCCGGTAATCCGTATTTGAG (site CTCCCCACTCT) | 0.891
CTCCCCACATGGACCGGTTTTCCCGGTAATCCGTATTTGAG (site CTCCCGACTCT) | 0.0121
CTCCCCACATGGACCGGTTTTCCCGGTAATCCGTATTTGAG (site CTCCCTACTCT) | 0
CTCCCTACATGGACCGGTTTTCCCGGTAATCCGTATTTGCG (site CTCCCTACTCA) | 0.397
CTCCCTACATGGACCGGTTTTCCCGGTAATCCGTATTTGCG (site CTCCCTACTCC) | 0.0203
CTCCCTACATGGACCGGTTTTCCCGGTAATCCGTATTTGCG (site CTCCCTACTCG) | 0.488
CTCCCTACATGGACCGGTTTTCCCGGTAATCCGTATTTGCG (site CTCCCTACTCT) | 0.55
CTCCGGCCATGGACCGGTTTTCCCGGTAATCCGTATTTGCT (site CTCCGGCCTAG) | 0.589
CTCCGTACATGGACCGGTTTTCCCGGTAATCCGTATTTGAG (site CTCCATACTCT) | 0.649
CTCCGTACATGGACCGGTTTTCCCGGTAATCCGTATTTGAG (site CTCCCTACTCT) | 0.0126
CTCCGTACATGGACCGGTTTTCCCGGTAATCCGTATTTGAG (site CTCCGTACTCT) | 0.509

Source: the supplement of paper PMC11208160
